Source: US12076307B2, “Compositions for prevention or treatment of acute radiation syndrome and other radiation exposure” (priority 2017, dated 2024)
Like-named read-outs stand apart in the source and are kept apart here.

Experiments:
[1] = test system: Balb/c mice, 1 Gy gamma radiation + 5-Fluorouracil + tongue scratch; experiment: Radiation-induced oral mucositis ARS model: survival, mucositis, blood neutrophils; format: in vivo, mouse; conditions: PLAG 250 mg/kg/day oral
Method: In order to further confirm the effect of PLAG on the acute radiation syndrome, an animal model of radiation-induced oral mucositis was prepared and tested as an acute radiation syndrome animal model with severer conditions than those in Example 1 above. First, Balb/c mice (8-week-old female) were purchased from Koatech (Republic of Korea) and maintained in a specific pathogen-free (SPF) environment to establish a radiation-induced oral mucositis model. In this example, first group of oral mucositis induced group (negative control) was compared to the second group where PLAG was orally administered to animals with induced oral mucositis.
Specifically, mice were exposed to 1 Gy whole body gamma radiation and scars of 0.2 cm on the mice tongue were scratched at 0, 7, 10 and 16 days with the same force and depth using an 18 gauge needle. On day 2 post-irradiation, 5-Fluorouracil (50 mg/kg/day) was intraperitoneally administered and PLAG was administered orally at 250 mg/kg/day for 18 days (Table 2).
Oral mucositis level was determined by counting the ulcer formation and edema of the tongue and the incidence of wound atrophy, and calculating the score of oral mucositis by a total of 5 blinded observers. On the 7th and 10th day, the blood of the experimental groups was collected and the number of neutrophils in the blood was measured by measuring the Complete Blood Count (CBC) using a Mindray BC-5300 auto hematology analyzer (Shenzhen Mindray Bio-medical Electronics, China).

[2] = test system: Balb/c mice, TBI 6.5 or 8 Gy; experiment: Radiation-induced skin damage (erythema) in lethal ARS mouse models; format: in vivo
Excerpt: In order to evaluate effects of PLAG on recovery skin damage of animal models exposed to radiation, the following test groups were constructed as shown in Table 4 and results are shown in FIGS. 13-15. As discussed in Examples above, the first group of untreate group (negative control) of mice after radiation was compared to the second group of treated group of mice with PLAG after radiation.
In addition to the ARS survival studies that have been conducted in mice, a series of studies that probe secondary measures of efficacy in radiation-induced skin damage in the Balb/c mice (n=10/sex/group). […] The development of skin damage (erythema and reddening) on the tails were evaluated.
In the following study, Balb/c mice (n=5 females/group) were exposed with a supra-lethal radiation dosage of 8 Gy and treated with EC-18 daily at 250 mg/kg/day for 17 days.
The secondary measures of EC-18's efficacy on the supra-LD (8 Gy) of radiation-induced skin damage were assessed. Female BALB/c mice (9 weeks of age) were randomly divided into 2 cohorts and daily administered in-life with the vehicle control (PBS) and EC-18 at 250 mg/kg (n=5/each cohort).

[3] = test system: Balb/c mice, 6.11 Gy TBI; experiment: Structural analog / calorie effect study: EC-18, PLH, olive oil in 6.11 Gy ARS model; format: in vivo, mouse; conditions: 250 mg/kg daily
Method: Similarly, a structural analog efficacy study was conducted to identify the optimally functional molecule in the ARS murine model. The study was performed with the structural analog in which the acetyl group in EC-18 is replaced with a hydroxyl group (yielding palmitic linoleic hydroxyl glycerol, PLH) in 20 Balb/c mice (10 female and 10 male) per group. Mice were irradiated with TBI of 6.11Gy at day 0 and 250 mg/kg of EC-18 or PLH were given daily in-life.
The purpose of this study was to assess whether extra calories of EC-18 contribute to the enhanced survival in mice after exposure to a whole-body sublethal dose of γ-radiation. The study was performed with the structural analog in which the acetyl group in EC-18 is replaced with a hydroxyl group (yielding PLH) in a total of 100 BALB/c mice ([…]; 20 animals per study group) aged at 11 weeks. Mice were irradiated with TBI of 6.11Gy at day 0 and the same dosage (250 mg/kg) of EC-18, PLH, or olive oil (vehicle control) were given daily in-life.

[4] = Plasma radioactivity in rats after single oral or IV [14C]EC-18; format: in vivo, rat; conditions: oral, fed condition
Method: Male SD rats in the fed state were administered a single oral dose of 25, 50, or 100 mg/kg (vehicle: olive oil) or a single IV injection of 10 mg/kg of [^14C]EC-18 (EC-18 with radioactive isotope ^14C attached). Subsequently, the PK parameters were assessed. The concentration of radioactivity in rat plasma was measured by liquid scintillation counting (LSC) method after adding a scintillator (Clear-Sol I, Nacalai Tesque, Inc).

[5] = In vitro metabolic stability / metabolite screening, statements over all species; format: in vitro ADME, rat, dog, monkey, human
Method: [^14C]EC-18 or the positive control (7-ethoxycoumarin; 7-EC) reacted with microsomes prepared from hepatocytes of rats, dogs, monkeys, and humans, with or without cofactors, for 60 and 120 min. Then, the residual EC-18 concentration over time was measured by LC-RID ([^14C]EC-18) or LC-MS/MS (7-EC) (FIG. 63 and FIG. 64).
The LC-RID chromatographic profiles of radioactive metabolites produced in the 2-hr incubation reaction mixtures of the same test systems A, B, and C used to assess the metabolic and non-metabolic elimination rates of EC-18 were compared to the LC-UV chromatographic profiles of the synthetic reference material. […] The relative radioactivity of EC-18 accounted for 42-67% of total radioactivity. The peaks designated as M2, M3, and M5 were also determined in all species, and their relative radioactivity accounted for 12-34% of total radioactivity. The peaks of M4 and M6 were determined in monkeys and humans. M1 was abundantly detected in all species, but it was assumed to be a peak of early elution. The LC-UV chromatograms of reaction mixtures in each test system (FIGS. 65A-65C) and the relative radioactivity of the screened metabolites are shown in Table 25.

[6] = test system: CYP3A4; conditions: for Enzyme Activity CYP3A4: n=3
Method: This test was performed to determine if EC-18 was capable of inducing CYP1A2 and CYP3A4 activities in human primary hepatocytes.

[7] = biological target: T1, CYP1A2 (Homo sapiens, UniProt P05177); experiment: in vitro; format: in vitro ADME; conditions: human, microsomes
T1 construct: incubated with human liver microsomes; from tissue; host or cells: human liver microsomes
T1 sequence (P05177 whole entry): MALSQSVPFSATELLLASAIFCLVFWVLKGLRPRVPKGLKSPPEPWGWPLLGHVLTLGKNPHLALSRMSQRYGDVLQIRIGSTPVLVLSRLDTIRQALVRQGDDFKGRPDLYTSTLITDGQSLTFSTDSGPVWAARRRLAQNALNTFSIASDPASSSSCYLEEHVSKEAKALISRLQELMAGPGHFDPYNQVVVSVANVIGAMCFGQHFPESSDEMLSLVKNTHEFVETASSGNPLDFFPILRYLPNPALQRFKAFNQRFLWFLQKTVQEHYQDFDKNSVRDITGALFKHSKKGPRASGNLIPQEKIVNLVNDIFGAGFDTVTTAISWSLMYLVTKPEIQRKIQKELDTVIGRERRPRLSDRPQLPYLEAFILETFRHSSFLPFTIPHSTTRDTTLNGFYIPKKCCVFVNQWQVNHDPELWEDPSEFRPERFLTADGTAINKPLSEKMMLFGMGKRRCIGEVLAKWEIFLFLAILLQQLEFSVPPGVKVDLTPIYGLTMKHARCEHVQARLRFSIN

[8] = test system: SD rat; experiment: Single-dose toxicity, SD rat; format: in vivo
Excerpt: Various toxicology studies have been performed. All studies were GLP-compliant unless otherwise noted.

CCCCC/C=C\C/C=C\CCCCCCCC(=O)OC(COC(C)=O)COC(=O)CCCCCCCCCCCCCCC (stereo not drawn) [EC-18, 1-palmitoyl-2-linoleoyl-3-acetylglycerol]
oral mucositis score [1]: significantly decreased | visually confirmed oral mucositis levels vs non-PLAG-treated group [1]: significantly reduced | neutrophil number in blood ([1]; days 7 and 10): significantly increased | survival rate ([1]; day 18, n=7): 85% | skin damage (erythema and reddening) on the tails vs PBS ([2]; 6.5 Gy, 250 mg/kg/day 30 days): substantial reduction of tail erythema | skin damage (necrosis, ulceration, blistering, hair loss) on tails and feet vs PBS ([2]; 8 Gy, 250 mg/kg/day 17 days, n=5 females): extensively reduced | mice with any skin damage on the tails ([2]; 8 Gy, 250 mg/kg, n=5, day 10): none of the five | mice with slight hemorrhagic telangiectasia on the front right feet ([2]; 8 Gy, 250 mg/kg, n=5, day 10): Only one individual | No. of mice that survived/total [3]: 14/20 | Survival [3]: 70% | Survival time of decedents, Mean ± SEM [3]: 23.7 ± 1.4 days | Survival time of decedents, Median [3]: 23.5 days | body weight loss induced by irradiation [3]: effectively prevented and rapidly recovered weight loss | increase in survival vs control and PLH-treated group [3]: 2 fold | survival compared to control group [3]: significant increase | absolute bioavailability (BA) [4]: approximately 46% | relative radioactivity of total radioactivity ([5]; 2-hr incubation, all species and test systems): 42-67% | residual EC-18 concentration relative to initial concentration ([5]; 1 hr, test systems A, B, C, all species): ≥ 50% | order of residual EC-18 concentration ([5]; 2 hrs): human>rat and dog>monkey | residual EC-18 concentration ([5]; 2 hrs, all test systems, all species except monkeys): ≥ 50% | Enzyme Activity CYP3A4 ([6]; 1 μM): 3.44 ± 0.73 pmol/106 Cells/Min | Enzyme Activity CYP3A4 ([6]; 10 μM): 3.11 ± 0.25 pmol/106 Cells/Min | Enzyme Activity CYP3A4 ([6]; 100 μM): 3.61 ± 0.28 pmol/106 Cells/Min | potential to induce CYP3A4 ([6]; up to 100 μM): no potential to induce | IC50 [7]: 24.4 mM | Approximate lethal dose ([8]; Oral): dose: >2000 mg/kg | mortality ([8]; Oral, 0, 2000 mg/kg): No dead animals
